The target of experiment [1] is T1, Human Recombinant Gelatinase B (MMP-9) (Homo sapiens, UniProt P14780).
T1 construct: made in house; host or cells: baculovirus protein expression system
The experiment can be described thus: P218 quenched fluorescence assay for MMP inhibition: MMP-9. Type of experiment: biochemical. The settings on record: P218 substrate 6 μM, pH 6.5, 25 min at 37° C.; for MMP-9 Fluorogenic, I (percent inhibition): inhibitor concentration not given; for IC50: read-out: MMP-9 Fluorogenic IC-50. The text has this:
(§1) P218 Quenched Fluorescence Assay for MMP Inhibition:
(§2) The P218 quenched fluorescence assay (Microfluorometric Profiling Assay) is a modification of that originally described by Knight, et al., FEBS Lett. 296, 263, 1992 for a related substance and a variety of matrix metalloproteinases (MMPs) in cuvettes. The assay was run with each invention compound and the three MMPs, MMP-3, MMP-9 and MMP-2, analyzed in parallel, adapted as follows for a 96-well microtiter plate and a Hamilton AT® workstation.
(§3) P218 Fluorogenic Substrate:
(§4) P218 is a synthetic substrate containing a 4-acetyl-7-methoxycoumarin (MCA) group in the N-terminal position and a 3-[2,4-dinitrophenyl]-L-2,3-diaminopropionyl (DPA) group internally. This is a modification of a peptide reported by Knight (1992) that was used as a substrate for matrix metalloproteinases. Once the P218 peptide is cleaved (putative clip site at the Ala-Leu bond), the fluorescence of the MCA group can be detected on a fluorometer with excitation at 328 nm and emission at 393 nm. P218 is currently being produced BACHEM exclusively for Bayer. P218 has the structure:
(§5) H-MCA-Pro-Lys-Pro-Leu-Ala-Leu-DPA-Ala-Arg-NH2 (MW 1332.2)
Preparation of Human Recombinant Pro-Gelatinase B (MMP-9):
Recombinant Human Pro-MMP-9: Human pro-gelatinase B (pro-MMP-9) derived from U937 cDNA as described by Wilhelm, et al. J. Biol. Chem. 264, 17213, 1989 was expressed as the full-length form using a baculovirus protein expression system. The pro-enzyme was purified using methods previously described by Hibbs, et al. J. Biol. Chem. 260, 2493, 1984.
Activation of Pro-MMP-9: Pro-MMP-2 20 μg/ml in 50 mM Tris at pH 7.4, 10 mM CaCl2, 150 mM NaCl, and 0.005% Brij-35 (MMP-9 activation buffer) was activated by incubation with 0.5 mM p-aminophenylmercuric acetate (APMA) for 3.5 h at 37° C. The enzyme was dialyzed against the same buffer to revmove the APMA.
(§6) Hamiltion Microlab AT Plus: The MMP-Profiling Assay is performed robotically on a Hamilton MicroLab AT Plus®. The Hamilton is programmed to: (1) serially dilute up to 11 potential inhibitors automatically from a 2.5 mM stock in 100% DMSO; (2) distribute substrate followed by inhibitor into a 96 well Cytofluor plate; and (3) add a single enzyme to the plate with mixing to start the reaction. Subsequent plates for each additional enzyme are prepared automatically by beginning the program at the substrate addition point, remixing the diluted inhibitors and beginning the reaction by addition of enzyme. In this way, all MMP assays were done using the same inhibitor dilutions.
(§7) Millipore Cytofluor II. Following incubation, the plate was read on a Cytofluor II fluorometric plate reader with excitation at 340 nm and emission at 395 nm with the gain set at 80.
(§8) Microfluorometric Reaction Buffer (MRB): Dilution of test compounds, enzymes, and P218 substrate for the microfluorometric assay were made in microfluorometric reaction buffer consisting of 50 mM 2-(N-morpholino)ethanesulfonic acid (MES) at pH 6.5 with 10 mM CaCl2, 150 mM NaCl, 0.005% Brij-35 and 1% DMSO.
(§9) MMP Microfluorometric Profiling Assay. The assay is done with a final substrate concentration of 6 μM P218 and approximately 0.5 to 0.8 nM MMP with variable drug concentrations. The Hamilton is programmed to serially dilute up to 11 compounds from a 2.5 mM stock (100% DMSO) to 10x the final compounds concentrations in the assay. Initially, the instrument delivers various amounts of microfluoromentric reaction buffer (MRB) to a 96 tube rack of 1 ml Marsh dilution tubes. The instrument then picks up 20 μl of inhibitor (2.5 mM) from the sample rack and mixes it with a buffer in row A of the Marsh rack, resulting in a 50 μM drug concentration. The inhibitors are then serially diluted to 10, 5, 1, 0.2, 0.05 and 0.01 μM. […]

Experiment [2] has as its target T2, Human Recombinant Gelatinase A (MMP-2) (Homo sapiens, UniProt P08253).
T2 sequence (P08253 110-660): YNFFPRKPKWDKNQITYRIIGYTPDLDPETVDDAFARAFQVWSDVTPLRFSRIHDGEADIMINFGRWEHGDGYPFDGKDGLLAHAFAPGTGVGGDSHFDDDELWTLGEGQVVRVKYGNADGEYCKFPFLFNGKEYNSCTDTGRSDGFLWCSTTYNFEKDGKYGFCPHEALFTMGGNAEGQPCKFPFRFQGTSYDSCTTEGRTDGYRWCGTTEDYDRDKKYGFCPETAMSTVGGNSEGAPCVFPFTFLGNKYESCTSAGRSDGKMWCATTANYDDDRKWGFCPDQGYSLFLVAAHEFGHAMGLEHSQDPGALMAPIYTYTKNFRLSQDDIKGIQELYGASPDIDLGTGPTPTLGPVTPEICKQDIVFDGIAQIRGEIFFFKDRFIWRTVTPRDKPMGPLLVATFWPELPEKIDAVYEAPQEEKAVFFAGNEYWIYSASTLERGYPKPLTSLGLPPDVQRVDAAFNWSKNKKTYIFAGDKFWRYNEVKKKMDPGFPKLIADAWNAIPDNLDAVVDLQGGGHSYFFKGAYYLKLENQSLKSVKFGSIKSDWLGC
In words: P218 quenched fluorescence assay for MMP inhibition: MMP-2. Type of experiment: biochemical.

Experiment [3] has as its target T3, Recombinant Human CHO Stromelysin (MMP-3) (Homo sapiens, UniProt P08254).
T3 construct: made in house; host or cells: CHO cells (as described by Housley et al., J. Biol. Chem. 268, 4481, 1993)
In words: P218 quenched fluorescence assay for MMP inhibition: MMP-3. The settings on record: P218 substrate 6 μM, pH 6.5, 25 min at 37° C.; read-out: MMP-3 Fluorogenic IC-50. The class given is biochemical.
From the text: as §1, §2, §3, §4, §5
Recombinant Human CHO Stromelysin (MMP-3)
Recombinant Human CHO Pro-MMP-3: Human CHO pro-stromelysin-257 (pro-MMP-3) was expressed and purified as described by Housley, et al., J. Biol. Chem. 268, 4481, 1993.
Activation of Pro-MMP-3: Pro-MMP-3 at 1.72 μM (100 μg/mL) in 5 mM Tris at pH 7.5, 5 mM CaCl2, 25 mM NaCl, and 0.005% Brij-35 MMP-3) activation buffer) was activated by incubation with TPCK (N-tosyl-(L)-phenylalanine chloromethyl ketone) trypsin (1:100 w/w to pro-MMP-3) at 25° C. for 30 min. The reaction was stopped by addition of soybean trypsin inhibitor (SBTI; 5:1 w/w to trypsin concentration). This activation protocol results in the formation of 45 kDa active MMP-3, which still contains the C-terminal portion of the enzyme.
as §6, §7, §8, §9

The conditions of experiment [4]: Child, et al., J. Pharm. Sci. 66, 466, 1977; cited from earlier work.
The mark [5] stands for this setting: P218 substrate 6 μM, pH 6.5, 25 min at 37° C., read-out: MMP-2 Fluorogenic IC-50.

Like-named read-outs stand apart in the source and are kept apart here.

T3 sequence (P08254 100-477): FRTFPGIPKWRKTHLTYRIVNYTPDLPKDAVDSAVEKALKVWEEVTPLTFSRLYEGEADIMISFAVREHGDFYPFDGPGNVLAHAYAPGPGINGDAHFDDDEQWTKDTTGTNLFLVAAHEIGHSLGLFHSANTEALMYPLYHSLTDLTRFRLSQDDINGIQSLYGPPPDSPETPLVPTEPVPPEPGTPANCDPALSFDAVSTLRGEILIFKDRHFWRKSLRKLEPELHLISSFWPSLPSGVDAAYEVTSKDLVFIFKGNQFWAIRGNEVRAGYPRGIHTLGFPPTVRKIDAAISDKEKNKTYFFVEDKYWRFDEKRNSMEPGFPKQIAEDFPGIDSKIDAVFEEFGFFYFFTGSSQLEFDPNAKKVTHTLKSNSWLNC
T1 sequence (P14780 107-707 limits assumed): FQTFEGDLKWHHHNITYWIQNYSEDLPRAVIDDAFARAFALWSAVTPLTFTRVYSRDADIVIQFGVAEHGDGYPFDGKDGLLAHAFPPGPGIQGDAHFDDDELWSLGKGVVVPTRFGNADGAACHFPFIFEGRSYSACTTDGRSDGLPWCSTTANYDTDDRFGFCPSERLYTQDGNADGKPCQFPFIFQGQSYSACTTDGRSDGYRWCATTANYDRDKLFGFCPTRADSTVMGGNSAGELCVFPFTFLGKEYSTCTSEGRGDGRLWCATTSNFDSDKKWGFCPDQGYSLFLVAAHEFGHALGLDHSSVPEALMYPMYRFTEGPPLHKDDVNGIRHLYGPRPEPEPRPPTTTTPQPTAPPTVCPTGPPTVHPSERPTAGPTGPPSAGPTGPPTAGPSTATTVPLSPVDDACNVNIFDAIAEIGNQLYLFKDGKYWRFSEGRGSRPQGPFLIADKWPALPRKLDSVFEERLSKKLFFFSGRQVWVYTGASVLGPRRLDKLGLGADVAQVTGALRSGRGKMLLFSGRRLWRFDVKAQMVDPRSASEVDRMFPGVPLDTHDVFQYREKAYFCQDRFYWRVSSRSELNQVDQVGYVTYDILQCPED

As to `O=C(O)CCC#Cc1ccc(-c2ccc(C(=O)CC(CCCc3ccccc3)C(=O)O)cc2)cc1` (stereo not drawn) [Compound X, 4'-(4-carboxy-1-butynyl)-λ-oxo-α-(3-phenylpropyl)-[1,1'-biphenyl]-4-butanoic acid], in experiment [1], the “MMP-9 Fluorogenic, I (percent inhibition)” value is on record as 27%. In addition, the values for the IC50 in experiment [2] (setting [5]) and in experiment [3] were 108 nM and 203 nM, respectively.

Regarding `O=C(CC(CCCc1ccccc1)C(=O)O)c1ccc(-c2ccc(C#CCCCCO)cc2)cc1` (centres unmarked) [XII], the IC50 stood at 614 nM in experiment [1], 36 nM in experiment [2] (setting [5]) and 56.6 nM in experiment [3].

As for `O=C(CC(CCCc1ccccc1)C(=O)O)c1ccc(-c2ccc(C#Cc3cccc(O)c3)cc2)cc1` (centres unmarked) [XIV], in experiment [1], the “MMP-9 Fluorogenic, I (percent inhibition)” value is recorded as 46%. Also, the IC50 in experiment [2] (setting [5]) was found to be 85 nM; in experiment [3], 125 nM.

As for `O=C(CC(CCN1C(=O)c2ccccc2C1=O)C(=O)O)c1ccc(-c2ccc(C#CCOCc3ccccc3)cc2)cc1` (stereo not drawn) [Compound XV, 1,3-dihydro-1,3-dioxo-α-[2-oxo-2-[4'-[3(phenylmethoxy)-1-propynyl][1,1'-biphenyl]-4-yl]ethyl]-2H-isoindole-2-butanoic acid], the IC50 in experiment [1] came to 40 nM; in experiment [2] (setting [5]) it was 5 nM; in experiment [3], 11 nM.

In the case of `COCC#Cc1ccc(-c2ccc(C(=O)CC(CCCc3ccccc3)C(=O)O)cc2)cc1` (stereo not drawn) [IV, 4'-(3-methoxy-1-propynyl)-λ-oxo-α-(3-phenylpropyl)-[1,1'-biphenyl]-4-butanoic acid], the IC50 in experiment [1] was found to be 704 nM; in experiment [2] (setting [5]) it was 21 nM; in experiment [3], 38 nM.

Consider `O=C(CC(CCCc1ccccc1)C(=O)O)c1ccc(-c2ccc(C#Cc3ccccc3)cc2)cc1` (stereo not drawn) [XIII, λ-oxo-4'-(phenylethynyl)-α-(3-phenylpropyl)-[1,1'-biphenyl]-4-butanoic acid], for which the IC50 in experiment [2] (setting [5]) worked out at 245 nM; in experiment [3], 405 nM.

Regarding `O=C(C[C@H](CCCc1ccccc1)C(=O)O)c1ccc(-c2ccc(C#CCO)cc2)cc1` [II, S-4'-(3-hydroxy-1-propynyl)-λ-oxo-α-(3-phenylpropyl)-[1,1'-biphenyl]-4-butanoic acid], the “MMP-9 Fluorogenic, I (percent inhibition)” value in experiment [1] is 35%. For the same compound, the IC50 was 252 nM in experiment [2] (setting [5]) and 2180 nM in experiment [3].

In the case of `CCOC(=O)OCC#Cc1ccc(-c2ccc(C(=O)CC(CCCc3ccccc3)C(=O)O)cc2)cc1` (stereo not drawn) [Compound VII, 4'-[3-[(ethoxycarbonyl)oxy]-1-propynyl]-λ-oxo-α-(3-phenylpropyl)-[1,1'-biphenyl]-4-butanoic acid], the IC50 turned out to be 2460 nM in experiment [1], 103 nM in experiment [2] (setting [5]) and 67 nM in experiment [3].

Take `CC(=O)OCCC#Cc1ccc(-c2ccc(C(=O)CC(CCCc3ccccc3)C(=O)O)cc2)cc1` (centres unmarked) [IX]: the IC50 in experiment [1] was determined as 542 nM; in experiment [2] (setting [5]), 37 nM; in experiment [3], 57 nM.

On to `CC(CC(=O)c1ccc(-c2ccccc2)cc1)C(=O)O` (centres unmarked) [compound XLVII], for which the “anti-inflammatory activity (in words)” value in experiment [4] was “inactive”.

In the case of `CCCN(CC#Cc1ccc(-c2ccc(C(=O)CC(CCCc3ccccc3)C(=O)O)cc2)cc1)CCC` (centres unmarked) [Compound V], the figures for the IC50 in experiment [1], in experiment [2] (setting [5]) and in experiment [3] were 2630 nM, 235 nM and 327 nM, respectively.

For `O=C(C[C@@H](CCCc1ccccc1)C(=O)O)c1ccc(-c2ccc(C#CCO)cc2)cc1` [III], the IC50 in experiment [1] is 37 nM; in experiment [2] (setting [5]), 1 nM; in experiment [3], 5 nM.

Turning to `CC(=O)OCC#Cc1ccc(-c2ccc(C(=O)CC(CCCc3ccccc3)C(=O)O)cc2)cc1` (stereo not drawn) [Compound VI, 4'-[3-(acetyloxy)-1-propynyl]-λ-oxo-α-(3-phenylpropyl)-[1,1'-biphenyl]-4-butanoic acid], the IC50 in experiment [1] worked out at 834 nM; in experiment [2] (setting [5]), 14 nM; in experiment [3], 36 nM.

Turning to `O=C(CC(CCN1C(=O)c2ccccc2C1=O)C(=O)O)c1ccc(-c2ccc(C#CCO)cc2)cc1` (centres unmarked) [Compound XVI], the IC50 in experiment [1] was 2 nM; in experiment [2] it was 1 nM; in experiment [3], 4 nM.

Take `O=C(CC(CCCc1ccccc1)C(=O)O)c1ccc(-c2ccc(C#CCCO)cc2)cc1` (stereo not drawn) [VIII, 4'-(4-hydroxy-1-butynyl)-λ-oxo-α-(3-phenylpropyl)-[1,1'-biphenyl]-4-butanoic acid]: the IC50 amounted to 122 nM in experiment [1], 6 nM in experiment [2] (setting [5]) and 32 nM in experiment [3].

On to `O=CCCCC#Cc1ccc(-c2ccc(C(=O)CC(CCCc3ccccc3)C(=O)O)cc2)cc1` (stereo not drawn) [Compound XI, λ-oxo-4'-(5-oxo-1-pentynyl)-α-(3-phenylpropyl)-[1,1'biphenyl]-4-butanoic acid], for which, in experiment [1], the “MMP-9 Fluorogenic, I (percent inhibition)” value was found to be 24%. In addition, the IC50 is 596 nM in experiment [2] (setting [5]) and 1730 nM in experiment [3].

For `O=C(O)CC(C(=O)c1ccc(-c2ccccc2)cc1)c1ccccc1` (centres unmarked) [LXXVII], the “anti-inflammatory activity (in words)” value in experiment [4] is “inactive”.

Consider `O=C(CC(C(=O)O)c1ccccc1)c1ccc(-c2ccccc2)cc1` (centres unmarked) [XLIX], for which the “anti-inflammatory activity (in words)” value in experiment [4] was “inactive”.

On to `O=C(CC(CCCc1ccccc1)C(=O)O)c1ccc(-c2ccc(C#CCO)cc2)cc1` (racemic) [Compound I], for which the figures for the IC50 in experiment [1], in experiment [2] (setting [5]) and in experiment [3] were 106 nM, 4 nM and 21 nM, respectively.

The values are drawn from patent publication US5968795A, “Biaryl acetylenes as inhibitors of matrix metalloproteases” (Bayer Corporation, priority 1997, dated 1999).
